Experimental data reported in US5254535A, “Composition and treatment with biologically active peptides and antibiotic” (priority 1989, dated 1993).
No end group written: not given here.

Columns and labels:
Assay type in all cases: cell-based
E. coli [1] = experiment: MIC of peptide with or without 10 μg/ml erythromycin, Example 6
Experimental: (§1) For each of the organisms listed in Table 6 below, 10^5 organisms were mid-log inoculated into 200 ml of one-half strength trypticase soy broth. The organisms were incubated for 15 hrs. at 37° C. […] The minimal inhibitory concentrations in μg/ml are given below in Table 6. […] K. pneumoniae, P. aeruginosa, and E. coli are Gram-negative bacteria.

P. aeruginosa [2] = experiment: as above
Experimental: as §1

K. pneumoniae = experiment: as above
Experimental: as §1

E. coli [3] = experiment: MIC of peptide alone or with 20% of antibiotic MIC, procedure of Example 1; conditions: for MIC of antibiotic: antibiotic alone against E. coli; for MIC Peptide alone / MIC Peptide and Ampicillin / MIC Peptide with Aztreonam / MIC Peptide with Bacitracin / MIC Peptide and Benzyl penicillin: E. coli; for MIC Peptide and Ampicillin: peptide plus 20% of the MIC of ampicillin; for MIC Peptide and Ampicillin / MIC Peptide and Benzyl penicillin: Table 4; for MIC Peptide with Aztreonam: peptide plus 20% of the MIC of aztreonam, Table 5; for MIC Peptide with Bacitracin: peptide plus 20% of the MIC of bacitracin, Table 2; for MIC Peptide and Benzyl penicillin: peptide plus 20% of the MIC of benzyl penicillin
Experimental: (§2) S. aureus organisms are grown to mid log phase, and then diluted to 10^3 organisms/ml in 1/2 strength trypticase soy broth. After the incubation of the organisms, the minimal inhibitory concentration in ug/ml for Z-52 MG-2(amide-terminated), PGLa, CPF Z-50, A-97, Magainin II, and Z-74 peptides, against S. aureus was measured when each peptide was added alone to the organisms. "MG-2 (amide)" is amide-terminated Magainin II, and "Magainin II" is carboxy-terminated Magainin II. A-97 peptide is of the following structure:
(§3) The minimal inhibitory concentration (MIC) for each peptide was then measured when 20% of the minimal inhibitory concentration of bacitracin, tobramycin or gentamicin, respecitvely, is added to the organisms along with the peptide. The gentamicin employed is a mixture of Gentamicin C1, Gentamicin C1a, and Gentamicin C2. […] CPF Z-50 peptide has structure number (8) of the CPF peptides hereinabove described. Z-52 peptide is of the structure (ALSK)6 NH2. The minimal inhibitory concentrations are given below in Table I.
E. coli organisms were incubated according to the procedure described in Example 1. After the incubation, the minimal inhibitory concentrations against E. coli of each of the peptides described in Example 1 alone, as well as of each peptide when employed in combination with 20% of the MIC for bactracin, were then measured.
(§4) In this example, E. coli or P. aeruginosa organisms were incubated according to the procedure described in Example 1. After, the incubation, the minimal inhibitory concentrations of the peptides hereinabove described alone, as well as the peptides in combination with 20% of the minimal inhibitory concentrations (MIC) of benzyl penicillin or ampicillin, were then measured. […]
(§5) E. coli and P. aeruoginosa organisms were incubated according to the procedure described in Example 1. After the incubation, the minimal inhibitory concentrations of the peptides hereinabove described alone, as well as the peptides in combination with 20% of the MIC of the monobactam antibiotic aztreonam, were then measured. The MIC of aztreonam against E. coli is a 2 μg/ml, and against P. aeruginosa is 8 μg/ml.

P. aeruginosa [4] = experiment: as above; conditions: for MIC of antibiotic: antibiotic alone against P. aeruginosa; for MIC Peptide with Aztreonam: peptide plus 20% of the MIC of aztreonam, Table 5; for MIC Peptide with Bacitracin: peptide plus 20% of the MIC of bacitracin, Table 3
Experimental: as §2, §3
In this example, P. aeruginosa organisms were incubated according to the procedure described in Example 1. After the incubation, the minimal inhibitory concentrations of the peptides hereinabove described alone, as well as the peptides in combination with 20% of the MIC of bacitracin, were then measured.
as §4, §5

S. aureus [5] = experiment: as above; conditions: for MIC of antibiotic: antibiotic alone against S. aureus; for MIC Peptide alone / MIC With Added Antibiotic Bacitracin / MIC With Added Antibiotic Gentamicin / MIC With Added Antibiotic Tobramycin: S. aureus; for MIC Peptide alone: Table I; for MIC With Added Antibiotic Bacitracin: peptide plus 20% of the MIC of bacitracin; for MIC With Added Antibiotic Gentamicin: peptide plus 20% of the MIC of gentamicin; for MIC With Added Antibiotic Tobramycin: peptide plus 20% of the MIC of tobramycin
Experimental: as §2, §3

S. aureus [6] = experiment: Erythromycin and peptide against S. aureus, Example 6
Experimental: For each of the organisms listed in Table 6 below, 10^5 organisms were mid-log inoculated into 200 ml of one-half strength trypticase soy broth. The organisms were incubated for 15 hrs. at 37° C. […] K. pneumoniae, P. aeruginosa, and E. coli are Gram-negative bacteria.

[7] = peptide with erythromycin 10 μg/ml (+)
[8] = peptide, no erythromycin added (-)
[9] = P. aeruginosa, Example 3, Table 3
[10] = P. aeruginosa, Example 5, Table 5

What does the source list for `CC[C@H]1OC(=O)[C@H](C)[C@@H](O[C@H]2C[C@@](C)(OC)[C@@H](O)[C@H](C)O2)[C@H](C)[C@@H](O[C@@H]2O[C@H](C)C[C@H](N(C)C)[C@H]2O)[C@](C)(O)C[C@@H](C)C(=O)[C@H](C)[C@@H](O)[C@]1(C)O` [Erythromycin, reference compound]?
Minimal Inhibitory Concentration (E. coli [1]; erythromycin alone): > 100 µg/mL; Minimal Inhibitory Concentration (P. aeruginosa [2]; erythromycin alone): > 100 µg/mL; Minimal Inhibitory Concentration (K. pneumoniae; erythromycin alone): > 100 µg/mL

Which MIC of antibiotic (E. coli [3]) does the source give for `CC1(C)S[C@@H]2[C@H](NC(=O)[C@H](N)c3ccccc3)C(=O)N2[C@H]1C(=O)O` [ampicillin, alpha-amino-benzyl penicillin, reference compound] here?
Its MIC of antibiotic is 4 µg/mL.

Which results are given for `C[C@H]1[C@H](NC(=O)/C(=N\OC(C)(C)C(=O)O)c2csc(N)n2)C(=O)N1S(=O)(=O)O` [aztreonam, reference compound]?
MIC of antibiotic (E. coli [3]): 2 µg/mL; MIC of antibiotic (P. aeruginosa [4]): 8 µg/mL

For `CC1(C)S[C@@H]2[C@H](NC(=O)Cc3ccccc3)C(=O)N2[C@H]1C(=O)O` [benzyl penicillin, reference compound], which MIC of antibiotic (E. coli [3]) is on record?
Its MIC of antibiotic is 64 µg/mL.

`NC[C@H]1O[C@H](O[C@H]2[C@H](O)[C@@H](O[C@H]3O[C@H](CO)[C@@H](O)[C@H](N)[C@H]3O)[C@H](N)C[C@@H]2N)[C@H](N)C[C@@H]1O` [tobramycin, Tobramycin, reference compound] was tested. Which MIC of antibiotic (E. coli [3]) did it give?
Its MIC of antibiotic is 2 µg/mL.

What about the MIC of antibiotic (P. aeruginosa [4]) of the same compound?
Its MIC of antibiotic is 128 µg/mL.

And the MIC of antibiotic (S. aureus [5])?
Its MIC of antibiotic is over 256 µg/mL.

How did the “MIC Peptide alone” value (E. coli [3]; Example 2, Table 2) turn out when “GFASFLGKALKAALKIGANLLGGTPQQ [Peptide Z-50, structure number (8) of the CPF peptides]” was run?
Its value is 16 µg/mL.

What about the “MIC Peptide alone” value (E. coli [3]; Example 4, Table 4) of the same compound?
The value was 32 µg/mL.

What about the “MIC Peptide alone” value (E. coli [3]; Example 5, Table 5) of the same compound?
Its value is 32 µg/mL.

What about the “MIC Peptide and Ampicillin” value (E. coli [3]) of the same compound?
The value was 8 µg/mL.

And the “MIC Peptide with Aztreonam” value (E. coli [3])?
The value was 8 µg/mL.

And the “MIC Peptide with Bacitracin” value (E. coli [3])?
Its value is 16 µg/mL.

And the “Minimal Inhibitory Concentration” value (E. coli [1]; [7])?
The value was under 0.5 µg/mL.

What about the “Minimal Inhibitory Concentration” value (E. coli [1]; [8]) of the same compound?
Its value is under 5.0 µg/mL.

And the “Minimal Inhibitory Concentration” value (P. aeruginosa [2]; [7])?
Its value is under 0.5 µg/mL.

And the “Minimal Inhibitory Concentration” value (P. aeruginosa [2]; [8])?
The value was under 5.0 µg/mL.

What about the “Minimal Inhibitory Concentration” value (K. pneumoniae; [7]) of the same compound?
Its value is under 0.5 µg/mL.

What about the “Minimal Inhibitory Concentration” value (K. pneumoniae; [8]) of the same compound?
Its value is under 0.5 µg/mL.

And the “MIC Peptide alone” value (P. aeruginosa [4]; [9])?
The value was 32 µg/mL.

What about the “MIC Peptide alone” value (P. aeruginosa [4]; [10]) of the same compound?
The value was 64 µg/mL.

And the “MIC Peptide with Aztreonam” value (P. aeruginosa [4]; P. aeruginosa)?
Its value is 32 µg/mL.

What about the “MIC Peptide with Bacitracin” value (P. aeruginosa [4]; P. aeruginosa) of the same compound?
The value was 4 µg/mL.

What about the “MIC Peptide alone” value (S. aureus [5]) of the same compound?
Its value is 16 µg/mL.

And the “MIC With Added Antibiotic Bacitracin” value (S. aureus [5])?
The value was 16 µg/mL.

And the “MIC With Added Antibiotic Gentamicin” value (S. aureus [5])?
Its value is 2 µg/mL.

And the “MIC With Added Antibiotic Tobramycin” value (S. aureus [5])?
Its value is 8 µg/mL.

What does the source list for GIGKFLHSAKKFGKAFVGEIMNS [Magainin II]?
MIC Peptide alone (E. coli [3]; Example 2, Table 2): 32 µg/mL; MIC Peptide alone (E. coli [3]; Example 4, Table 4): 64 µg/mL; MIC Peptide alone (E. coli [3]; Example 5, Table 5): 64 µg/mL; MIC Peptide and Ampicillin (E. coli [3]): 16 µg/mL; MIC Peptide with Aztreonam (E. coli [3]): 16 µg/mL; MIC Peptide with Bacitracin (E. coli [3]): 8 µg/mL; MIC Peptide and Benzyl penicillin (E. coli [3]): 32 µg/mL; MIC Peptide alone (P. aeruginosa [4]; [9]): 256 µg/mL; MIC Peptide alone (P. aeruginosa [4]; [10]): 256 µg/mL; MIC Peptide with Aztreonam (P. aeruginosa [4]; P. aeruginosa): 128 µg/mL; MIC Peptide with Bacitracin (P. aeruginosa [4]; P. aeruginosa): 16 µg/mL; MIC Peptide alone (S. aureus [5]): 256 µg/mL; MIC With Added Antibiotic Bacitracin (S. aureus [5]): 128 µg/mL; MIC With Added Antibiotic Gentamicin (S. aureus [5]): 4 µg/mL; MIC With Added Antibiotic Tobramycin (S. aureus [5]): 32 µg/mL

Which “activity of combination against S. aureus” value (S. aureus [6]; 10 μg/ml of amide-terminated Magainin II and 0.03 μg/ml of erythromycin) does the source give for “GIGKFLHSAKKFGKAFVGEIMNS-NH2 [MG-2 amide]” here?
Its value is “effective biological activity”.

What about the “concentration required for effective biological activity” value (S. aureus [6]; S. aureus, substance alone) of the same compound?
The value was “greater than 250 μg/ml”.

What about the “MIC Peptide alone” value (E. coli [3]; Example 2, Table 2) of the same compound?
Its value is 16 µg/mL.

What about the “MIC Peptide alone” value (E. coli [3]; Example 4, Table 4) of the same compound?
The value was 64 µg/mL.

And the “MIC Peptide alone” value (E. coli [3]; Example 5, Table 5)?
The value was 64 µg/mL.

And the “MIC Peptide and Ampicillin” value (E. coli [3])?
Its value is 8 µg/mL.

What about the “MIC Peptide with Aztreonam” value (E. coli [3]) of the same compound?
The value was 32 µg/mL.

And the “MIC Peptide with Bacitracin” value (E. coli [3])?
Its value is 4 µg/mL.

What about the “MIC Peptide and Benzyl penicillin” value (E. coli [3]) of the same compound?
Its value is 32 µg/mL.

What about the “Minimal Inhibitory Concentration” value (E. coli [1]; [7]) of the same compound?
Its value is 0.5 µg/mL.

And the “Minimal Inhibitory Concentration” value (E. coli [1]; [8])?
Its value is 5 µg/mL.

And the “Minimal Inhibitory Concentration” value (P. aeruginosa [2]; [7])?
The value was under 5.0 µg/mL.

What about the “Minimal Inhibitory Concentration” value (P. aeruginosa [2]; [8]) of the same compound?
The value was 50 to 100 µg/mL.

What about the “Minimal Inhibitory Concentration” value (K. pneumoniae; [7]) of the same compound?
Its value is under 0.5 µg/mL.

What about the “Minimal Inhibitory Concentration” value (K. pneumoniae; [8]) of the same compound?
The value was 5 µg/mL.

What about the “MIC Peptide alone” value (P. aeruginosa [4]; [9]) of the same compound?
The value was 128 µg/mL.

What about the “MIC Peptide alone” value (P. aeruginosa [4]; P. aeruginosa, Example 4, Table 4) of the same compound?
Its value is 256 µg/mL.

What about the “MIC Peptide alone” value (P. aeruginosa [4]; [10]) of the same compound?
The value was 128 µg/mL.

And the “MIC Peptide and Ampicillin” value (P. aeruginosa [4]; P. aeruginosa, peptide plus 20% of the MIC of ampicillin, Table 4)?
The value was 128 µg/mL.

And the “MIC Peptide with Aztreonam” value (P. aeruginosa [4]; P. aeruginosa)?
Its value is 64 µg/mL.

And the “MIC Peptide with Bacitracin” value (P. aeruginosa [4]; P. aeruginosa)?
The value was 8 µg/mL.

And the “MIC Peptide and Benzyl penicillin” value (P. aeruginosa [4]; P. aeruginosa, peptide plus 20% of the MIC of benzyl penicillin, Table 4)?
The value was 128 µg/mL.

And the “MIC Peptide alone” value (S. aureus [5])?
The value was 256 µg/mL.

What about the “MIC With Added Antibiotic Bacitracin” value (S. aureus [5]) of the same compound?
The value was 32 µg/mL.

What about the “MIC With Added Antibiotic Gentamicin” value (S. aureus [5]) of the same compound?
Its value is 4 µg/mL.

And the “MIC With Added Antibiotic Tobramycin” value (S. aureus [5])?
The value was 32 µg/mL.

bacitracin [reference compound] was tested. Which MIC of antibiotic (E. coli [3]) did it give?
Its MIC of antibiotic is 64 µg/mL.

What about the MIC of antibiotic (P. aeruginosa [4]) of the same compound?
Its MIC of antibiotic is over 256 µg/mL.

And the MIC of antibiotic (S. aureus [5])?
The MIC of antibiotic was 2 µg/mL.

How did the MIC of antibiotic (E. coli [3]) turn out when gentamicin [reference compound] was run?
The MIC of antibiotic was 2 µg/mL.

What about the MIC of antibiotic (P. aeruginosa [4]) of the same compound?
The MIC of antibiotic was over 256 µg/mL.

And the MIC of antibiotic (S. aureus [5])?
Its MIC of antibiotic is 256 µg/mL.
